Molecular target: T1, HDAC6 human recombinant (Homo sapiens, UniProt Q9UBN7)
T1 sequence (Q9UBN7 1-1215): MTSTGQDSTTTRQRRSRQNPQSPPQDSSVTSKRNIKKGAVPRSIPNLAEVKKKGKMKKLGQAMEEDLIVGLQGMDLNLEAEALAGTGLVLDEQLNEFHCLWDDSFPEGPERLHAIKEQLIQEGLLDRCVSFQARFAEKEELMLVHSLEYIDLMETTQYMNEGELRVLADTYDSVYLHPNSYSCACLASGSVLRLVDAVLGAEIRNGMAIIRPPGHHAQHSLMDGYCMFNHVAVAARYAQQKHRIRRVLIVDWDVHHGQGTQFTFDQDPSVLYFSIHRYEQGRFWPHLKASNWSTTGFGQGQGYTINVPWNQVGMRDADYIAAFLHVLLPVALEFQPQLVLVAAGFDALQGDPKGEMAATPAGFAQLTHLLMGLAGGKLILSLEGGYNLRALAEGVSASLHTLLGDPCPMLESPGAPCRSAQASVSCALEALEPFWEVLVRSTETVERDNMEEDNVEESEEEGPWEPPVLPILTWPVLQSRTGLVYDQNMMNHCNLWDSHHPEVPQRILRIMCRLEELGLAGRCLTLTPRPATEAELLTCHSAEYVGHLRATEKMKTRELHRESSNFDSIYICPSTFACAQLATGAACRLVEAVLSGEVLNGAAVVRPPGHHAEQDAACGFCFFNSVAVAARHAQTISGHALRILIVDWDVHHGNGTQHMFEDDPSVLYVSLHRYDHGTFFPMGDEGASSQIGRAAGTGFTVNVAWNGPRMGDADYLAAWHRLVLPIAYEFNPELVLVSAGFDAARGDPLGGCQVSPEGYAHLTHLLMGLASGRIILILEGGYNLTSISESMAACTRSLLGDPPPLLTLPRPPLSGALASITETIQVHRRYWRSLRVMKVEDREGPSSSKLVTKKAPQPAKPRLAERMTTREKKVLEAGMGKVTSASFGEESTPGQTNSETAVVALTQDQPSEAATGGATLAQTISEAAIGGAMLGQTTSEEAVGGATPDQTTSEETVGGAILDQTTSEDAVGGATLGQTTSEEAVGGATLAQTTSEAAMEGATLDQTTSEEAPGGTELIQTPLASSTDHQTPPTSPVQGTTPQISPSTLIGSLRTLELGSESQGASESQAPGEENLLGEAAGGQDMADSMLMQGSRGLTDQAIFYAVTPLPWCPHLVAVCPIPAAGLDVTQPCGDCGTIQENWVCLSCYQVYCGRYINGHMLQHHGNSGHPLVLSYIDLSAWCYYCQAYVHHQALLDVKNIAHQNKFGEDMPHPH
Assay: HDAC enzyme activity inhibition (in vitro), fluorimetric HDAC6 assay
Format: biochemical
Settings: samples at 0.1, 1, 10, 100 and 1000 nM, 37° C. 60 minutes, fluorescence Ex 390, Em 460
Procedure: To identify this, HDAC1/6 enzyme selectivity and cell selectivity (HDAC1: histone acetylation/HDAC6: tubulin acetylation) were investigated accordingly.
An HDAC enzyme inhibitory ability of a test material was measured by means of HDAC1 Fluorimetric Drug Discovery Assay Kit (Enzolifesciences: BML-AK511) and HDAC6 human recombinant (Calbiochem: 382180). For an HDAC1 assay, samples were treated at a concentration of 100, 1000 and 10000 nM. For an HDAC6 assay, samples were treated at a concentration of 0.1, 1, 10, 100 and 1000 nM. After such sample treatment, a reaction was continued at 37° C. for 60 minutes, then treated with a developer, and then subjected to reaction at 37° C. for 30 minutes, after which fluorescence intensity (Ex 390, Em 460) was measured by means of FlexStation3 (Molecular device).

IC50	SMILES
257 nM	COc1ccc(C(=O)Cn2ccc(-c3nnc(C(F)F)o3)cc2=O)c(OC)c1 [Compound 20, 4-(5-(difluoromethyl)-1,3,4-oxadiazole-2-yl)-1-(2-(2,4-dimethoxyphenyl)-2-oxoethyl) pyridine-2(1H)-one]
427 nM	COc1cccc(C(=O)Cn2ccc(-c3nnc(C(F)F)o3)cc2=O)c1 [Compound 22, 4-(5-(difluoromethyl)-1,3,4-oxadiazole-2-yl)-1-(2-(3-methoxyphenyl)-2-oxoethyl)pyridine-2(1H)-one]
598 nM	Cc1cc(C(=O)Cn2ccc(-c3nnc(C(F)F)o3)cc2=O)c(F)cc1Cl [Compound 23, 1-(2-(4-chloro-2-fluoro-5-methylphenyl)-2-oxoethyl)-4-(5-(difluoromethyl)-1,3,4-oxadiazole-2-yl)pyridine-2(1H)-one]
284 nM	COc1ccc(OC)c(C(=O)Cn2ccc(-c3nnc(C(F)F)o3)cc2=O)c1 [Compound 24, 4-(5-(difluoromethyl)-1,3,4-oxadiazole-2-yl)-1-(2-(2,5-dimethoxyphenyl)-2-oxoethyl) pyridine-2(1H)-one]
239 nM	O=C(Cn1ccc(-c2nnc(C(F)F)o2)cc1=O)c1ccc([N+](=O)[O-])cc1 [Compound 25, 4-(5-(difluoromethyl)-1,3,4-oxadiazole-2-yl)-1-(2-(4-nitrophenyl)-2-oxoethyl)pyridine-2(1H)-one]
272 nM	O=c1cc(-c2nnc(C(F)F)o2)ccn1Cc1ccc([N+](=O)[O-])cc1 [Compound 26, 4-(5-(difluoromethyl)-1,3,4-oxadiazole-2-yl)-1-(4-nitrobenzyl)pyridine-2(1H)-one]
726 nM	CCC(CC)Cn1ccc(-c2nnc(C(F)F)o2)cc1=O [Compound 27, 4-(5-(difluoromethyl)-1,3,4-oxadiazole-2-yl)-1-(2-ethylbutyl)pyridine-2(1H)-one]
156 nM	O=c1cc(-c2nnc(C(F)F)o2)ccn1Cc1noc(C(F)(F)F)n1 [Compound 28, 4-(5-(difluoromethyl)-1,3,4-oxadiazole-2-yl)-1-((5-(trifluoromethyl)-1,2,4-oxadiazole-3-yl)methyl)pyridine-2(1H)-one]
1670 nM	CC(C)=CCn1ccc(-c2nnc(C(F)(F)F)o2)cc1=O [Compound 48, 1-(3-methylbut-2-en-1-yl)-4-(5-(trifluoromethyl)-1,3,4-oxadiazole-2-yl)pyridine-2(1H)-one]
238 nM	O=C(Cn1ccc(-c2nnc(C(F)F)o2)cc1=O)c1cccs1 [Compound 50, 4-(5-(difluoromethyl)-1,3,4-oxadiazole-2-yl)-1-(2-oxo-2-(thiophene-2-yl)ethyl)pyridine-2(1H)-one]
377 nM	C=C(C)Cn1ccc(-c2nnc(C(F)F)o2)cc1=O [Compound 52, 4-(5-(difluoromethyl)-1,3,4-oxadiazole-2-yl)-1-(2-methylallyl)pyridine-2(1H)-one]
388 nM	CC(C)CCn1ccc(-c2nnc(C(F)F)o2)cc1=O [Compound 53]
663 nM	CC(C)=CCn1ccc(-c2nnc(C(F)F)o2)cc1=O [Compound 54, 4-(5-(difluoromethyl)-1,3,4-oxadiazole-2-yl)-1-(3-methylbut-2-en-1-yl)pyridine-2(1H)-one]

Further lines, the compound ahead of its results:

SMILES	IC50
O=C(Cn1ccc(-c2nnc(C(F)F)o2)cc1=O)c1ccc2c(c1)OCCO2 [Compound 21]	381 nM
O=C1c2ccccc2C(=O)N1CCCCn1ccc(-c2nnc(C(F)F)o2)cc1=O [Compound 29, 2-(4-(4-(5-(difluoromethyl)-1,3,4-oxadiazole-2-yl)-2-oxopyridine-1(2H)-yl)butyl)isoindoline-1,3-dione]	261 nM
O=c1cc(-c2nnc(C(F)(F)F)o2)ccn1Cc1cc(F)c(F)cc1F [Compound 30, 1-(2,4,5-trifluorobenzyl)-4-(5-(trifluoromethyl)-1,3,4-oxadiazole-2-yl)pyridine-2(1H)one]	1790 nM
O=c1cc(-c2nnc(C(F)(F)F)o2)ccn1Cc1cccc(F)c1 [Compound 31, 1-(3-fluorobenzyl)-4-(5-(trifluoromethyl)-1,3,4-oxadiazole-2-yl)pyridine-2(1H)-one]	1100 nM
O=c1cc(-c2nnc(C(F)(F)F)o2)ccn1Cc1ccccc1F [Compound 32, 1-(2-fluorobenzyl)-4-(5-(trifluoromethyl)-1,3,4-oxadiazole-2-yl)pyridine-2(1H)-one]	2420 nM
O=c1cc(-c2nnc(C(F)(F)F)o2)ccn1Cc1cc(F)ccc1F [Compound 33, 1-(2,5-difluorobenzyl)-4-(5-(trifluoromethyl)-1,3,4-oxadiazole-2-yl)pyridine-2(1H)-one]	1270 nM
O=C(Cn1ccc(-c2nnc(C(F)(F)F)o2)cc1=O)c1ccc(Cl)cc1 [Compound 34, 1-(2-(4-chlorophenyl)-2-oxoethyl)-4-(5-(trifluoromethyl)-1,3,4-oxadiazole-2-yl)pyridine-2(1H)-one]	2320 nM
CS(=O)(=O)c1ccc(C(=O)Cn2ccc(-c3nnc(C(F)(F)F)o3)cc2=O)cc1 [Compound 35, 1-(2-(4-(methylsulfonyl)phenyl)-2-oxoethyl)-4-(5-(trifluoromethyl)-1,3,4-oxadiazole-2-yl)pyridine-2(1H)-one]	2210 nM
O=C(Cn1ccc(-c2nnc(C(F)(F)F)o2)cc1=O)c1cccs1 [Compound 36, 1-(2-oxo-2-(thiophene-2-yl)ethyl)-4-(5-(trifluoromethyl)-1,3,4-oxadiazole-2-yl)pyridine-2(1H)-one]	935 nM
O=C(Cn1ccc(-c2nnc(C(F)(F)F)o2)cc1=O)c1ccc(Cl)s1 [Compound 37, 1-(2-(5-chlorothiophene-2-yl)-2-oxoethyl)-4-(5-(trifluoromethyl)-1,3,4-oxadiazole-2-yl)pyridine-2(1H)-one]	1300 nM
O=C(Cn1ccc(-c2nnc(C(F)(F)F)o2)cc1=O)c1coc2ccccc12 [Compound 38, 1-(2-(benzofuran-3-yl)-2-oxoethyl)-4-(5-(trifluoromethyl)-1,3,4-oxadiazole-2-yl)pyridine-2(1H)-one]	2390 nM
O=C(OCCn1ccc(-c2nnc(C(F)(F)F)o2)cc1=O)c1ccccc1 [Compound 39, 2-(2-oxo-4-(5-(trifluoromethyl)-1,3,4-oxadiazole-2-yl)pyridine-1(2H)-yl)ethyl benzoate]	900 nM
O=C(Cn1ccc(-c2nnc(C(F)(F)F)o2)cc1=O)OCc1ccccc1 [Compound 40, benzyl 2-(2-oxo-4-(5-(trifluoromethyl)-1,3,4-oxadiazole-2-yl)pyridine-1(2H)-yl)acetate]	945 nM
O=C(Cn1ccc(-c2nnc(C(F)(F)F)o2)cc1=O)c1ccc2ccccc2c1 [Compound 41, 1-(2-(naphthalene-2-yl)-2-oxoethyl)-4-(5-(trifluoromethyl)-1,3,4-oxadiazole-2-yl)pyridine-2(1H)-one]	5180 nM
O=C(Cn1ccc(-c2nnc(C(F)(F)F)o2)cc1=O)c1ccccc1 [Compound 42, 1-(2-oxo-2-phenylethyl)-4-(5-(trifluoromethyl)-1,3,4-oxadiazole-2-yl)pyridine-2(1H)-one]	1910 nM
O=C(C(Cn1ccc(-c2nnc(C(F)F)o2)cc1=O)c1ccccc1)N1CCS(=O)(=O)CC1 (centres unmarked) [Compound 44]	382 nM
O=C(C(Cn1ccc(-c2nnc(C(F)F)o2)cc1=O)c1ccccc1)N1CCOCC1 (centres unmarked) [Compound 45, 4-(5-(difluoromethyl)-1,3,4-oxadiazole-2-yl)-1-(3-morpholino-3-oxo-2-phenylpropyl)pyridine-2(1H)-one]	290 nM
CCn1ccc(-c2nnc(C(F)(F)F)o2)cc1=O [Compound 49, 1-ethyl-4-(5-(trifluoromethyl)-1,3,4-oxadiazole-2-yl)pyridine-2(1H)-one]	1590 nM
O=C(Cn1ccc(-c2nnc(C(F)F)o2)cc1=O)c1coc2ccccc12 [Compound 51, 1-(2-(benzofuran-3-yl)-2-oxoethyl)-4-(5-(difluoromethyl)-1,3,4-oxadiazole-2-yl)pyridine-2(1H)-one]	284 nM
